Article PMC2667487, “Cellular localization of kinin B1 receptor in the spinal cord of streptozotocin-diabetic rats with a fluorescent [N^α-Bodipy]-des-Arg^9-bradykinin” (Journal of Neuroinflammation, 2009)

How the values were obtained:
B2 receptors = conditions: via B2 receptors, protein kinase C; cited from earlier work
Source text: (§1) NF-κB upregulates B1R upon binding to its nuclear promoter.

[1] = test system: B1R in primary microglial cells; conditions: cited from earlier work
Source text: as §1

[2] = test system: B1R in primary microglial cells; assay: B1R induction and BdABK labeling in primary cultured microglial cells; assay type: cell-based, rat; conditions: 300 nM BK, 24 h
Procedure: Mixed glial cultures were prepared following the protocol of McCarthy and de Vellis with some modifications. Briefly, forebrains were dissected out from one litter of 2-day-old Sprague-Dawley rat pups and the meninges were stripped off before enzymatic and mechanical dissociation. For enzymatic dissociation, HBSS containing 0.25% trypsin (Gibco 15090-046) was used. The tissue-trypsin suspension was incubated for 20 min at 37°C in a water bath with intermittent shaking. After the waiting time for the trypsin digestion is over we added to the tissue-trypsin suspension a mixture of prewarmed DMEM/Dnase I (Sigma DN-25, Dnase I final concentration 0. 25 mg/ml) followed by an incubation for 4 min at 37°C. The resulting suspension was dispersed by a mild mechanical trituration which consisted in the passage through 18-, 22- and 25- gauge needles. This cell suspension was then filtred through 70 μm strainer (BD Falcon 352350). After extensive washs in prewarmed HBSS, these dissociated cells were resuspended and plated in 75-cm^2 Falcon tissue-culture flasks (BD Biosciences) previously coated with 10 μg/ml poly-D-lysine (PDL). These mixed cells were growing at 37°C and 5% CO2 in DMEM (Gibco) supplemented with 10% FBS, penicillin (100 units/ml), and streptomycin ([…]). The media was changed every 2 or 3 days thereafter. […]

## BK: bradykinin, preferential B2R agonist; used to induce B1R in microglia (RPPGFSPFR; Bradykinin; UniProt P01042 381-389, looked up)
B2 receptors
  intracellular calcium and NF-κB activation: induces elevation of intracellular calcium leading to the phosphorylation and activation of NF-κB
[1]
  B1R expression in cultured rat microglia exposed to BK: B1R can be expressed in cultured rat microglia
[2]
  induction of B1R in primary microglial cells: B1R was induced
